From PubChem BioAssay (NCI)
Where “and” joins values, the source holds several entries; their conditions need not be identical. Equal entries are not always repeated.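 Exposure lasted 48 hours, with cells grown in 96-well plates and compounds tested at five concentrations. Abbreviation: GI50, concentration required for 50% inhibition of growth. TGI denotes the concentration required for complete inhibition of growth.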

Columns and labels:
Experiment in all cases: NCI-60 cell line screen, 48 h
M14 melanoma = system: M14 melanoma
UACC-257 melanoma = system: UACC-257 melanoma
UACC-62 melanoma = system: UACC-62 melanoma
SNB-75 CNS = system: SNB-75 CNS
OVCAR-3 ovarian = system: OVCAR-3 ovarian
HCC-2998 colon = system: HCC-2998 colon
A549 NSCLC = system: A549 NSCLC
HOP-92 NSCLC = system: HOP-92 NSCLC
NCI-H522 lung = system: NCI-H522 lung
SK-MEL-5 melanoma = system: SK-MEL-5 melanoma

Row | SMILES | TGI (M14 melanoma) | TGI (UACC-257 melanoma) | TGI (UACC-62 melanoma) | TGI (SNB-75 CNS) | TGI (OVCAR-3 ovarian) | TGI (HCC-2998 colon) | TGI (A549 NSCLC) | TGI (HOP-92 NSCLC) | TGI (NCI-H522 lung) | TGI (SK-MEL-5 melanoma) | GI50 (M14 melanoma) | GI50 (UACC-257 melanoma) | GI50 (UACC-62 melanoma) | GI50 (SNB-75 CNS) | GI50 (OVCAR-3 ovarian) | GI50 (HCC-2998 colon) | GI50 (A549 NSCLC) | GI50 (HOP-92 NSCLC) | GI50 (NCI-H522 lung) | GI50 (SK-MEL-5 melanoma)
1 | O=C1OC(c2ccccc2)=N/C1=C\c1ccc(N(CCCl)CCCl)cc1 | > 100 µM | > 100 µM | > 100 µM | > 100 µM | > 100 µM | > 100 µM | > 100 µM | > 84.6 µM | > 95.7 µM | > 100 µM |  |  |  |  |  |  |  |  |  | 
2 | O=C(O)C12C3C4C1C1C2C3C41I (stereo not drawn) | > 100 µM | > 100 µM | > 100 µM | > 100 µM | > 100 µM | > 100 µM | > 100 µM | > 100 µM | > 100 µM | > 100 µM |  |  |  |  |  |  |  |  |  | 
3 | Cc1c(-c2ccc(N3CCc4cccc(C(=O)Nc5nc6ccccc6s5)c4C3)nc2C(=O)O)cnn1CC12CC3CC(CC(C3)C1)C2 | 25.4 µM | 30.2 µM | 15.4 µM | 36.8 µM | 20.9 µM | 1.34 µM | 25.3 µM | < 0.01 µM | 28 µM | 9.79 µM | 7.7 µM | 10.5 µM | 3.65 µM | 9.35 µM | 6.19 µM | < 0.0329 µM | 4.97 µM | < 0.01 µM | 10.8 µM | 2.79 µM
4 | Cn1c(=O)c(Oc2ccc(F)cc2F)cc2cnc(NC3CCC(O)CC3)nc21 (stereo not drawn) | > 25 µM | > 25 µM | > 25 µM | > 25 µM | > 25 µM | > 25 µM | > 25 µM | 19.3 µM | > 25 µM | > 25 µM | > 25 µM | > 25 µM | > 25 µM | > 25 µM | > 25 µM | > 25 µM | > 25 µM | 0.779 µM | > 25 µM | > 25 µM
5 | O=C1COc2cc3c(cc2N1)SCC(=O)N3 | > 100 µM | > 100 µM | > 100 µM | > 100 µM | > 100 µM | > 100 µM | > 100 µM | > 100 µM | > 100 µM | > 100 µM |  |  |  |  |  |  |  |  |  | 
6 | Cc1c(N)nc(C2CC(=O)N2CC(N)C(N)=O)nc1C(=O)NC(C(=O)NC(C)C(O)C(C)C(=O)NC(C(=O)NCCc1nc(-c2nc(C(=O)NCCNCC(C)O)cs2)cs1)C(C)O)C(OC1OC(CO)C(O)C(O)C1OC1OC(CO)C(O)C(OC(N)=O)C1O)c1cnc[nH]1 (stereo not drawn) | 50 µM and 23.8 µM | 49.4 µM | 6.43 µM and 7.31 µM | 23.9 µM and 6.66 µM | 20.6 µM and > 55 µM | > 100 µM | 50 µM and > 100 µM | 9.68 µM | 10.8 µM and 7.89 µM | 11.6 µM and 17.9 µM | 7.91 µM | 6.2 µM | 0.756 µM | 3.06 µM | 1.63 µM |  | 4.68 µM |  | 0.972 µM | 0.644 µM
7 | CCC(=C(c1ccc(OCCN(CC)CC)cc1)c1ccc(OCCN(CC)CC)cc1)c1ccc(Cl)cc1 | 1.11 µM | 1.25 µM | 1.13 µM | 2.32 µM | 1.14 µM | 1.02 µM | 1.31 µM | 1.18 µM | 1.21 µM | 1.06 µM | 0.585 µM | 0.62 µM | 0.592 µM | 0.668 µM | 0.577 µM | 0.532 µM | 0.638 µM | 0.5 µM | 0.564 µM | 0.593 µM
8 | Cc1c(C(=O)C/C(=N/NC(=O)CC#N)C(N)=O)[n+](=O)c2ccccc2n1[O-] | > 100 µM | > 100 µM | > 100 µM | > 100 µM | 61.8 µM | > 100 µM | > 100 µM | > 100 µM | 51.6 µM | > 100 µM |  |  |  |  |  |  |  |  |  | 
9 | Nc1ccc2ncc(Nc3ccc(Cl)c(Cl)c3)nc2c1 | 94.1 µM | 54.6 µM | 50.9 µM | 59.4 µM | 40.1 µM | 32.8 µM | > 100 µM | 52.3 µM | 48.8 µM | 36.1 µM |  |  |  |  |  |  |  |  |  | 
